# Measurements taken from patent US10689383B2, “Optionally fused heterocyclyl-substituted derivatives of pyrimidine useful for the treatment of inflammatory, metabolic, oncologic and autoimmune diseases” (NUEVOLUTION A/S, priority 2014, dated 2020).
# Biological target: T1, human RORγt (Ligand Binding Domain) (Homo sapiens, UniProt P51449)
# T1 construct: purchased Crelux (Planegg, Germany) batch no PC5032-1
# T1 sequence (P51449 269-508 limits assumed): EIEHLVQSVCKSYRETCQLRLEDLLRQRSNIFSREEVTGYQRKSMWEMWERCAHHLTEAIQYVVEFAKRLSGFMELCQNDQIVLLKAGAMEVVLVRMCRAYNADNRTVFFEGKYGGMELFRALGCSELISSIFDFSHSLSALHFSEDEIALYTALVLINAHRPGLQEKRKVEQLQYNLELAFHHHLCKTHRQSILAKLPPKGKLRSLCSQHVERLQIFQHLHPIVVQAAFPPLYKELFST
# Assay: Fluorescence Polarization (FP) Assay
# Conditions: Fluorescence Polarization (FP) Assay; values given as upper bounds of activity ranges; read-out: FP activity range
# Protocol: The activity of the compounds was evaluated using a Fluorescence Polarization (FP) Assay and, in most cases, a Th17 Assay and/or RORγ Reporter assay (also referred to as Gal4 assay). The FP assay is an in vitro assay monitoring binding within the ligand binding pocket. The RORγ and the Th17 assays are both cell-based assays monitoring functional activity of the compound assayed.
# The total volume was 25 μl, in a black Perkin Elmer OptiPlate. As negative control, 1 μl DMSO was used. […] The probe is a fluorescently labeled (TAMRA) RORγt ligand identified by Nuevolution with a total molecular weight of 910 g/mole as shown in Graph A in FIG. 1.
row,SMILES,IC50 [µM]
1,"COC(=O)Cc1ccc(CNc2ncnc(N3CCCC3c3ccc(C(F)(F)F)cc3)c2F)cc1 (stereo not shown) [Example 70, methyl 2-[4-[[[5-fluoro-6-[2-[4-(trifluoromethyl)phenyl]pyrrolidin-1-yl]pyrimidin-4-yl]amino]methyl]phenyl]acetate]",< 2
2,"CC(=O)N1CCOC([C@@H](CC(C)(C)C)Nc2ncnc(N3CCCC3c3ccc(C(F)(F)F)cc3)c2F)C1 (stereo partly drawn) [Example 71, 1-[2-[(1R)-1-[[5-fluoro-6-[2-[4-(trifluoromethyl)phenyl]pyrrolidin-1-yl]pyrimidin-4-yl]amino]-3,3-dimethyl-butyl]morpholin-4-yl]ethanone]",< 10
3,"Cn1ccc(CNc2ncnc(N3CCCC3c3ccc(C(F)(F)F)cc3)c2F)c1 (stereo not shown) [Example 105, 5-fluoro-N-[(1-methylpyrrol-3-yl)methyl]-6-[2-[4-(trifluoromethyl)phenyl]pyrrolidin-1-yl]pyrimidin-4-amine]",< 10
4,"O=C1CCC(CNc2ncnc(N3CCCC3c3ccc(C(F)(F)F)cc3)c2F)N1 (stereo not shown) [Example 108, 5-[[[5-fluoro-6-[2-[4-(trifluoromethyl)phenyl]pyrrolidin-1-yl]pyrimidin-4-yl]amino]methyl]pyrrolidin-2-one]",< 10
5,"O=C(O)c1ccc(CCNc2ncnc(N3CCCC3c3ccc(C(F)(F)F)cc3)c2F)cc1 (stereo not shown) [Example 120, 4-[2-[[5-fluoro-6-[2-[4-(trifluoromethyl)phenyl]pyrrolidin-1-yl]pyrimidin-4-yl]amino]ethyl]benzoic acid]",< 10
6,"O=C1Cc2cc(CNc3ncnc(N4CCCC4c4ccc(C(F)(F)F)cc4)c3F)ccc2N1 (stereo not shown) [Example 122, 5-[[[5-fluoro-6-[2-[4-(trifluoromethyl)phenyl]pyrrolidin-1-yl]pyrimidin-4-yl]amino]methyl]indolin-2-one]",< 10
7,"O=C1CC(CNc2ncnc(N3CCCC3c3ccc(C(F)(F)F)cc3)c2F)CN1C1CCCC1 (stereo not shown) [Example 130, 1-cyclopentyl-4-[[[5-fluoro-6-[2-[4-(trifluoromethyl)phenyl]pyrrolidin-1-yl]pyrimidin-4-yl]amino]methyl]pyrrolidin-2-one]",< 10
8,"Cc1cccc(CNc2ncnc(N3CCCC3c3ccc(C(F)(F)F)cc3)c2F)n1 (stereo not shown) [Example 132, 5-fluoro-N-[(6-methyl-2-pyridyl)methyl]-6-[2-[4-(trifluoromethyl)phenyl]pyrrolidin-1-yl]pyrimidin-4-amine]",< 10
9,"O=C1CC2(CCCN(c3ncnc(N4CCCC4c4ccc(C(F)(F)F)cc4)c3F)C2)CN1 (stereo not shown) [Example 134, 9-[5-fluoro-6-[2-[4-(trifluoromethyl)phenyl]pyrrolidin-1-yl]pyrimidin-4-yl]-3,9-diazaspiro[4.5]decan-2-one]",< 10
10,"CN1CC(CN(C)c2ncnc(N3CCCC3c3ccc(C(F)(F)F)cc3)c2F)CC1=O (stereo not shown) [Example 135, 4-[[[5-fluoro-6-[2-[4-(trifluoromethyl)phenyl]pyrrolidin-1-yl]pyrimidin-4-yl]-methyl-amino]methyl]-1-methyl-pyrrolidin-2-one]",< 10
11,"CCc1ccc(CN(C)c2ncnc(N3CCCC3c3ccc(C(F)(F)F)cc3)c2F)nc1 (stereo not shown) [Example 136, N-[(5-ethyl-2-pyridyl)methyl]-5-fluoro-N-methyl-6-[2-[4-(trifluoromethyl)phenyl]pyrrolidin-1-yl]pyrimidin-4-amine]",< 2
12,"O=C1CCCN1c1ccc(CNc2ncnc(N3CCCC3c3ccc(C(F)(F)F)cc3)c2F)cc1 (stereo not shown) [Example 137, 1-[4-[[[5-fluoro-6-[2-[4-(trifluoromethyl)phenyl]pyrrolidin-1-yl]pyrimidin-4-yl]amino]methyl]phenyl]pyrrolidin-2-one]",< 10
13,"Fc1c(NCc2ccc(-c3nnn[nH]3)cc2)ncnc1N1CCCC1c1ccc(C(F)(F)F)cc1 (stereo not shown) [Example 138, 5-fluoro-N-[[4-(1H-tetrazol-5-yl)phenyl]methyl]-6-[2-[4-(trifluoromethyl)phenyl]pyrrolidin-1-yl]pyrimidin-4-amine]",< 0.5
14,"Fc1c(NCc2ccccc2)ncnc1N1CCCC1c1ccc(C(F)(F)F)cc1 (stereo not shown) [Example 139, N-benzyl-5-fluoro-6-[2-[4-(trifluoromethyl)phenyl]pyrrolidin-1-yl]pyrimidin-4-amine]",< 2
15,"Fc1c(NCc2cccnc2)ncnc1N1CCCC1c1ccc(C(F)(F)F)cc1 (stereo not shown) [Example 141, 5-fluoro-N-(3-pyridylmethyl)-6-[2-[4-(trifluoromethyl)phenyl]pyrrolidin-1-yl]pyrimidin-4-amine]",< 2
16,"COc1cc(CNc2ncnc(N3CCCC3c3ccc(C(F)(F)F)cc3)c2F)cc(OC)c1 (stereo not shown) [Example 142, N-[(3,5-dimethoxyphenyl)methyl]-5-fluoro-6-[2-[4-(trifluoromethyl)phenyl]pyrrolidin-1-yl]pyrimidin-4-amine]",< 2

row,SMILES,IC50 [µM]
1,"O=C1CCCN1c1cccc(CNc2ncnc(N3CCCC3c3ccc(C(F)(F)F)cc3)c2F)c1 (stereo not shown) [Example 143, 1-[3-[[[5-fluoro-6-[2-[4-(trifluoromethyl)phenyl]pyrrolidin-1-yl]pyrimidin-4-yl]amino]methyl]phenyl]pyrrolidin-2-one]",< 2
2,"CNC(=O)c1cccc(CNc2ncnc(N3CCCC3c3ccc(C(F)(F)F)cc3)c2F)c1 (stereo not shown) [Example 144, 3-[[[5-fluoro-6-[2-[4-(trifluoromethyl)phenyl]pyrrolidin-1-yl]pyrimidin-4-yl]amino]methyl]-N-methyl-benzamide]",< 10
3,"CN(C)C(=O)c1cccc(CNc2ncnc(N3CCCC3c3ccc(C(F)(F)F)cc3)c2F)c1 (stereo not shown) [Example 145, 3-[[[5-fluoro-6-[2-[4-(trifluoromethyl)phenyl]pyrrolidin-1-yl]pyrimidin-4-yl]amino]methyl]-N,N-dimethyl-benzamide]",< 10
4,"Fc1c(NCc2cccc(Cn3cncn3)c2)ncnc1N1CCCC1c1ccc(C(F)(F)F)cc1 (stereo not shown) [Example 146, 5-fluoro-N-[[3-(1,2,4-triazol-1-ylmethyl)phenyl]methyl]-6-[2-[4-(trifluoromethyl)phenyl]pyrrolidin-1-yl]pyrimidin-4-amine]",< 2
5,"COCc1cccc(CNc2ncnc(N3CCCC3c3ccc(C(F)(F)F)cc3)c2F)c1 (stereo not shown) [Example 147, 5-fluoro-N-[[3-(methoxymethyl)phenyl]methyl]-6-[2-[4-(trifluoromethyl)phenyl]pyrrolidin-1-yl]pyrimidin-4-amine]",< 2
6,"Cc1ccc(CNc2ncnc(N3CCCC3c3ccc(C)o3)c2F)cn1 (stereo not shown) [Example 150, 5-fluoro-6-[2-(5-methyl-2-furyl)pyrrolidin-1-yl]-N-[(6-methyl-3-pyridyl)methyl]pyrimidin-4-amine]",< 10
7,"Fc1c(NCC2CCC2)ncnc1N1CCCC1c1ccc(C(F)(F)F)cc1 (stereo not shown) [Example 151, N-(cyclobutylmethyl)-5-fluoro-6-[2-[4-(trifluoromethyl)phenyl]pyrrolidin-1-yl]pyrimidin-4-amine]",< 10
8,"Fc1c(NCC2CCOC2)ncnc1N1CCC[C@@H]1c1ccc(C(F)(F)F)cc1 (stereo partly drawn) [Example 154, 5-fluoro-N-(tetrahydrofuran-3-ylmethyl)-6-[(2R)-2-[4-(trifluoromethyl)phenyl]pyrrolidin-1-yl]pyrimidin-4-amine]",< 0.5
9,"Fc1c(NCC2CCCCO2)ncnc1N1CCC[C@@H]1c1ccc(C(F)(F)F)cc1 (stereo partly drawn) [Example 155, 5-fluoro-N-(tetrahydropyran-2-ylmethyl)-6-[(2R)-2-[4-(trifluoromethyl)phenyl]pyrrolidin-1-yl]pyrimidin-4-amine]",< 10
10,"Fc1c(NCC2CCCS2)ncnc1N1CCC[C@@H]1c1ccc(C(F)(F)F)cc1 (stereo partly drawn) [Example 159, 5-fluoro-N-(tetrahydrothiophen-2-ylmethyl)-6-[(2R)-2-[4-(trifluoromethyl)phenyl]pyrrolidin-1-yl]pyrimidin-4-amine]",< 2
11,"CC1(C)CCC(CNc2ncnc(N3CCC[C@@H]3c3ccc(C(F)(F)F)cc3)c2F)CC1 [Example 166, N-[(4,4-dimethylcyclohexyl)methyl]-5-fluoro-6-[(2R)-2-[4-(trifluoromethyl)phenyl]pyrrolidin-1-yl]pyrimidin-4-amine]",< 0.5
12,"O=S1(=O)CCCC1CNc1ncnc(N2CCC[C@@H]2c2ccc(C(F)(F)F)cc2)c1F (stereo partly drawn) [Example 170, N-[(1,1-dioxothiolan-2-yl)methyl]-5-fluoro-6-[(2R)-2-[4-(trifluoromethyl)phenyl]pyrrolidin-1-yl]pyrimidin-4-amine]",< 10
13,"CC(C)(C)C1OCCCC1CNc1ncnc(N2CCC[C@@H]2c2ccc(C(F)(F)F)cc2)c1F (stereo partly drawn) [Example 175, N-[(2-tert-butyltetrahydropyran-3-yl)methyl]-5-fluoro-6-[(2R)-2-[4-(trifluoromethyl)phenyl]pyrrolidin-1-yl]pyrimidin-4-amine]",< 10
14,"CC(C)C1CCC(CNc2ncnc(N3CCC[C@@H]3c3ccc(C(F)(F)F)cc3)c2F)CC1 (stereo partly drawn) [Example 178, 5-fluoro-N-[(4-isopropylcyclohexyl)methyl]-6-[(2R)-2-[4-(trifluoromethyl)phenyl]pyrrolidin-1-yl]pyrimidin-4-amine]",< 0.5
15,"Fc1c(NCC2CCCO2)ncnc1N1CCC[C@@H]1c1ccc(C(F)(F)F)cc1 (stereo partly drawn) [Example 181, 5-fluoro-N-(tetrahydrofuran-2-ylmethyl)-6-[(2R)-2-[4-(trifluoromethyl)phenyl]pyrrolidin-1-yl]pyrimidin-4-amine]",< 10
